Measured values from US20260250257A1, “ANTIBACTERIAL AND SYNERGISTIC ACTIVE COMPOUND AND USE THEREOF” (EAST CHINA UNIVERSITY OF SCIENCE AND TECHNOLOGY, priority 2023, published 2026).
In brackets after ≈: the same amount, converted by molar mass.

Key:
Format in all cases: cell-based
[1] = tested on: ATCC19606 strain (Acinetobacter baumannii); test: Broth microdilution, antibacterial activity of the compound used alone
Description: (§1) The broth microdilution method was used to test the antibacterial effects of the compounds of the present invention against various Gram-negative bacterial strains when used alone.

[2] = tested on: ATCC9027 strain (Pseudomonas aeruginosa); test: as above
Description: as §1

[3] = tested on: ATCC13883 strain (Klebsiella pneumoniae); test: as above
Description: as §1

[4] = tested on: ATCC25922 strain (Escherichia coli); test: as above
Description: as §1

[5] = tested on: ATCC19606 strain (Acinetobacter baumannii); test: Checkerboard antibacterial synergistic activity test with polymyxin E (FIC); set-up: key: FIC≤0.5 synergy; 0.5–1 additive; 1–2 indifferent; ≥2 antagonism; details: combined with polymyxin E
Procedure: (§2) Polymyxin E was diluted in sterile MH broth medium to concentrations of 16, 8, 4, 2, 1, 0.5, 0.25, 0.125, 0.0625, 0.031, and 0.015 μg/ml, and the drug to be tested was diluted to concentrations of 256, 128, 64, 32, 16, 8, and 4 μg/ml. According to the checkerboard method, combinations of the drug to be tested and polymyxin at different concentrations in ascending order were placed into a 96-well plate, and corresponding blank control groups were set up. 50 μl of the drug solution was added to each well, then 100 μl of bacterial liquid was added, and incubated in a 37° C. incubator for 16 hours. […] Calculation and judgment criteria:
(§3) Fractional Inhibitory Concentration (FIC) is calculated as follows: […]
(§4) Judgment criteria: FIC≤0.5: synergistic effect; 0.5<FIC<1: additive effect; 1<FIC<2: indifferent effect; FIC≥2: antagonistic effect.
(§5) In the table: ATCC19606 strain is Acinetobacter baumannii, ATCC25922 strain is Escherichia coli, ATCC13883 strain is Klebsiella pneumoniae, ATCC9027 strain is Pseudomonas aeruginosa. All four strains were purchased from ATCC.

[6] = tested on: ATCC9027 strain (Pseudomonas aeruginosa); test: as above; set-up: key: FIC≤0.5 synergy; 0.5–1 additive; 1–2 indifferent; ≥2 antagonism; details: combined with polymyxin E
Procedure: as §2, §3, §4, §5

[7] = tested on: ATCC13883 strain (Klebsiella pneumoniae); test: as above; set-up: key: FIC≤0.5 synergy; 0.5–1 additive; 1–2 indifferent; ≥2 antagonism; details: combined with polymyxin E
Procedure: as §2, §3, §4, §5

[8] = tested on: ATCC25922 strain (Escherichia coli); test: as above; set-up: key: FIC≤0.5 synergy; 0.5–1 additive; 1–2 indifferent; ≥2 antagonism; details: combined with polymyxin E
Procedure: as §2, §3, §4, §5

MIC ([1]; read-out: Antibacterial activity of the compound of Formula I, ATCC19606) [mg/L]	MIC ([2]; read-out: Antibacterial activity of the compound of Formula I, ATCC9027) [mg/L]	MIC ([3]; read-out: Antibacterial activity of the compound of Formula I, ATCC13883) [mg/L]	MIC ([4]; read-out: Antibacterial activity of the compound of Formula I, ATCC25922) [mg/L]	SMILES	Antibacterial activity of the compound of Formula I, ATCC19606 [1] [µg/mL]	Antibacterial activity of the compound of Formula I, ATCC9027 [2] [µg/mL]	Antibacterial activity of the compound of Formula I, ATCC13883 [3] [µg/mL]	Antibacterial activity of the compound of Formula I, ATCC25922 [4] [µg/mL]	Synergistic activity (FIC value) ATCC19606 [5]	Synergistic activity (FIC value) ATCC9027 [6]	Synergistic activity (FIC value) ATCC13883 [7]	Synergistic activity (FIC value) ATCC25922 [8]
–	–	–	–	CNc1cc(C)cc(-c2csc(N=C(N)N)n2)c1 [Compound I-23]	256	256	256	256	0.52	1.25	0.52	0.63
–	–	–	–	Cc1ccc(NC(=O)Nc2cccc(-c3nc(N=C(N)N)sc3C)c2)c(C)c1 [Compound I-132]	256	256	256	256	0.03	0.28	0.16	0.18
–	–	–	–	NC(N)=Nc1nc(-c2cc(Cl)cc(Cl)c2)cs1 [Compound I-39]	256	64	128	128	0.75	1.25	1.25	1.25
256 (≈ 759 µM)	256 (≈ 759 µM)	256 (≈ 759 µM)	256 (≈ 759 µM)	NC(N)=Nc1nc(-c2cccc(NC(=O)c3ccccc3)c2)cs1 [Compound I-109]	–	–	–	–	1.25	1.25	1.25	0.27
–	–	–	–	NC(N)=Nc1nc(-c2ccc(Cl)cc2)cs1 [Compound I-38]	256	256	256	256	0.28	0.63	0.25	0.5
–	–	–	–	CC(C)c1ccc(-c2csc(N=C(N)N)n2)cc1 [Compound I-17]	256	256	256	256	0.28	0.63	0.25	0.5
–	–	–	–	NC(N)=Nc1nc(-c2ccc(OS(N)(=O)=O)cc2)co1 [Compound I-29]	256	256	256	256	0.26	1.25	1.25	1.25
–	–	–	–	Cc1ccc2cccc(-c3nc(N=C(N)N)oc3C)c2c1 [Compound I-58]	256	256	256	256	0.28	0.63	0.25	0.5
–	–	–	–	NC(N)=Nc1nc(-c2cc(I)c(O)c(I)c2)co1 [Compound I-35]	256	256	256	256	0.13	1.25	0.19	0.52
–	–	–	–	Ic1ccccc1-c1c[nH]c(N=C2NCCCN2)n1 [Compound I-179]	256	64	128	128	1.25	0.51	1.25	1.25
–	–	–	–	NC(N)=Nc1nc(-c2cccc(Oc3ccccc3Cl)c2)cs1 [Compound I-94]	256	256	256	256	0.04	0.52	0.19	0.26
–	–	–	–	Cc1oc(N=C(N)N)nc1-c1cccc(C#N)c1-c1cccs1 [Compound I-79]	256	256	256	256	0.52	1.25	0.52	0.63
–	–	–	–	O=[N+]([O-])c1ccc(Oc2ccc(I)cc2I)cc1-c1c[se]c(N=C2NCCCN2)n1 [Compound I-158]	256	256	256	256	0.03	0.28	0.16	0.18
–	–	–	–	NC(N)=Nc1nc(-c2cc(Cl)cc3c2Cc2ccc(Cl)cc2-3)cs1 [Compound I-116]	256	256	256	256	0.25	1.25	0.63	0.5
–	–	–	–	CSc1cc2cc(C)ccn2c1-c1coc(N=C2NCCCN2)n1 [Compound I-192]	256	256	256	256	0.5	0.63	0.38	0.38
–	–	–	–	Cc1sc(N=C(N)N)nc1-c1ccccc1Oc1ccccn1 [Compound I-101]	256	256	256	256	0.25	0.52	1.25	1.25
–	–	–	–	CC(C)(C)c1ccccc1-c1coc(N=C(N)N)n1 [Compound I-10]	256	256	256	256	1.25	1.25	1.25	0.5
